Laboratory results reported in patent US8258081B2, “Use of C3 to C14 aliphatic aldehydes, ketones and primary and secondary C3 to C7 aliphatic alcohols to inhibit sprouting of potato tubers” (Washington State University Research Foundation, priority 2007, dated 2012).

Key:
[1] = system: potato tubers; assay: Sprout inhibition by C5 to C7 alcohols, sprout fresh weight 21 days after treatment at 18° C.; type: in vivo; details: 24 h treatment
Experimental: (§1) The objective of this study was to determine the metabolites of 3-nonen-2-one (3N2) and trans-2-nonenal (T2N), which are two examples of α,β-unsaturated aldehydes and ketones that inhibit sprouting in potatoes as described in U.S. Pat. No. 6,855,669. Potato tubers were treated with 3N2 or T2N (0.75 mmol/kg tuber) for 24 h in a closed chamber. The chemicals were volatilized from filter paper inside the chamber. The tubers were removed from the treatment chamber and placed at 9° C. for up to 28 days.
The objective of this study was to determine the extent to which 1-heptanol, 1-hexanol, 2-heptanol, trans-2-hepten-1-ol, trans-2-hexen-1-ol and 1-pentanol (C5 to C7 alcohols) inhibit sprouting of potato tubers. Tubers were treated separately with 0.25, 0.5, 0.75 or 1 mmol/kg of each alcohol for 24 h as described in Example 1. The treated tubers were placed at 18° C. and sprout fresh weights were measured 21 days after treatment. […] C7 alcohols inhibited sprouting by about 50 to about 100%, depending on the precise treatment.

[2] = system: potato tubers; assay: Sprout inhibition by T2N and its metabolites, sprout fresh weight 21 days after treatment at 19° C.; type: in vivo; details: for % Inhibition of sprouting: 24 h treatment
Experimental: as §1
The objective of this study was to determine the extent to which nonanal, 1-nonanol, and trans-2-nonene-1-ol (metabolites of T2N) inhibit sprouting of potato tubers relative to T2N. Tubers were treated separately with 0.25, 0.5 and 0.75 mmol/kg of T2N, nonanal, 1-nonanol, and trans-2-nonene-1-ol for 24 h as described in Example 1. The treated tubers were placed at 19° C. and sprout fresh weights were measured 21 days after treatment. T2N inhibited sprouting (100%) at all concentrations. Nonanal and 1-nonanol inhibited sprouting by 13 to 51%, depending on the compound and the concentration that was used.

[3] = system: Premier Russet tubers; assay: Long term sprout inhibition during storage at 9° C.; type: in vivo, potato; details: 0.75 mmol/kg; for duration of sprout suppression: re-applied between second and third month
Experimental: FIG. 4. Effect of trans-2-hexen-1-ol, 2-heptanol, decanal and 3-decanone on sprouting in Premier Russet tubers during long term storage at 9° C.
The objective of this study was to determine the extent to which trans-2-hexen-1-ol, 2-heptanol, decanal, and 3-decanone inhibit sprouting during extended storage under typical commercial storage conditions. Premier Russet tubers were treated separately with 0.75 mmol/kg of each compound in 190 L plastic barrels at room temperature. Chemicals were volatilized from filter paper within the barrels which were sealed for 24 hours during application. Tubers were then stored at 9° C. and sampled monthly to determine the amount of sprouting on a per tuber basis. All treatments were re-applied between the second and third month of storage. […] 2-heptanol and decanal suppressed sprouting for 114 days (about 4 months of control). 3-decanone suppressed sprouting for 83 days.

[4] = system: potato tubers; assay: Residues and metabolites of 3N2 and T2N in treated potato tubers; details: for persistence of metabolite residue: tubers treated with 0.75 mmol/kg parent compound, 9° C., 28 days; for metabolites formed in tubers: tubers treated with 0.75 mmol/kg for 24 h, stored at 9° C. up to 28 days
Experimental: FIG. 1. Levels of 3-nonen-2-one, 2-nonanone, and 2-nonanol in tubers initially treated with 0.75 mmol/kg 3-nonen-2-one and stored at 9° C. Content of residues in the outer 20 mm of tuber.
FIG. 2. Levels of trans-2-nonenal, nonanal, trans-2-nonen-1-ol and 1-nonanol in tubers initially treated with 0.75 mmol/kg trans-2-nonenal and stored at 9° C. Content of residues in the outer 20 mm of tuber.
as §1
Samples were taken for analysis of residues and metabolite identification over the 28-day storage period.

[5] = system: potato tubers; assay: Sprout inhibition by 3N2, 2-nonanone and 2-nonanol, sprout fresh weight 21 days after treatment at 18° C.; type: in vivo; details: for % Inhibition of sprouting: 24 h treatment; for inhibition of sprout growth relative to non-treated controls: 0.5 and 0.75 mmol/kg
Experimental: as §1
Tubers were treated separately as described in Example 1 with 0, 0.25, 0.5, and 0.75 mmol/kg of 3N2,2-nonanone, and 2-nonanol. The treated tubers were placed at 18° C. and sprout fresh weights were measured 21 days after treatment.

[6] = system: Russet Burbank tubers; assay: Sprout inhibition by mixtures of 3N2 and 2-nonanone, sprout fresh weight 21 days after treatment at 22° C.; type: in vivo, potato
Experimental: FIG. 3. Effects of 3-nonen-2-one (3N2) in various combinations with 2-nonanone on sprouting of Russet Burbank tubers. The compounds were applied as described in Example 1. Tubers were treated for 24 h, removed from treatment chambers, and placed at 22° C. to sprout for 3 weeks. Sprout fresh weight is expressed as a percentage of control (non-treated), which were 100% sprouted.
as §1
The objective of this study was to determine the efficacy of mixtures of 3N2 and its metabolite, 2-nonanone, on sprout inhibition. Tubers were treated as described in Example 1 with 0 to 0.75 mmol/kg of 3N2 combined factorially with 0 to 0.75 mmol/kg of 2-nonanone. The treated tubers were placed at 22° C. and sprout fresh weights were measured 21 days after treatment. […]

[7] = system: potatoes; details: with two applications, table-stock and processing potatoes; cited from earlier work

Structure (SMILES): CCCCCCCO [1-heptanol]
- % Inhibition of sprouting ([1]; 0.25 mmol/kg tubers): 51.8%
- % Inhibition of sprouting ([1]; 0.50 mmol/kg tubers): 94.0%
- % Inhibition of sprouting ([1]; 0.75 mmol/kg tubers): 95.7%

Structure (SMILES): CCCCCCO [1-hexanol]
- % Inhibition of sprouting ([1]; 0.25 mmol/kg tubers): 36.6%
- % Inhibition of sprouting ([1]; 0.50 mmol/kg tubers): 61.3%
- % Inhibition of sprouting ([1]; 0.75 mmol/kg tubers): 71.9%

Structure (SMILES): CCCCCCCCCO [1-nonanol]
- % Inhibition of sprouting ([2]; 0.25 mmol/kg tubers): 28.3%
- % Inhibition of sprouting ([2]; 0.5 mmol/kg tubers): 24.5%
- % Inhibition of sprouting ([2]; 0.75 mmol/kg tubers): 50.9%

Structure (SMILES): CCCCCO [1-pentanol]
- % Inhibition of sprouting ([1]; 0.25 mmol/kg tubers): 7.5%
- % Inhibition of sprouting ([1]; 0.50 mmol/kg tubers): 32.5%
- % Inhibition of sprouting ([1]; 0.75 mmol/kg tubers): 45.8%

Structure (SMILES): CCCCCC(C)O (stereo not drawn) [2-heptanol]
- duration of sprout suppression [3]: 114 days
- % Inhibition of sprouting ([1]; 0.25 mmol/kg tubers): 49.4%
- % Inhibition of sprouting ([1]; 0.50 mmol/kg tubers): 89.0%
- % Inhibition of sprouting ([1]; 0.75 mmol/kg tubers): 97.7%

Structure (SMILES): CCCCCCCC(C)O (stereo not drawn) [2-nonanol]
- persistence of metabolite residue [4]: most persistent
- % Inhibition of sprouting ([5]; 0.25 mmol/kg tubers): 65.1%
- % Inhibition of sprouting ([5]; 0.5 mmol/kg tubers): 79.8%
- % Inhibition of sprouting ([5]; 0.75 mmol/kg tubers): 72.9%

Structure (SMILES): CCCCCCCC(C)=O [2-nonanone]
- Sprout growth (fresh weight) as % of non-treated tubers ([6]; average of 0.5 and 0.75 mmol/kg 2-nonanone): 58%
- % Inhibition of sprouting ([5]; 0.25 mmol/kg tubers): 77.22%
- % Inhibition of sprouting ([5]; 0.5 mmol/kg tubers): 97.9%
- % Inhibition of sprouting ([5]; 0.75 mmol/kg tubers): 98.8%
- inhibition of sprout growth relative to non-treated controls [5]: substantially inhibited sprout growth

Structure (SMILES): CCCCCCCC(=O)CC [3-decanone]
- duration of sprout suppression [3]: 83 days

Structure (SMILES): CCCCCC=CC(C)=O [3-nonen-2-one, reference compound]
- metabolites formed in tubers [4]: 2-nonanone and 2-nonanol
- Sprout growth (fresh weight) as % of non-treated tubers ([6]; 0.75 mmol/kg 3N2 applied alone): 9%
- % Inhibition of sprouting ([5]; 0.25 mmol/kg tubers): 99.6%
- % Inhibition of sprouting ([5]; 0.5 mmol/kg tubers): 99.9%
- % Inhibition of sprouting ([5]; 0.75 mmol/kg tubers): 99.9%
- inhibition of sprout growth relative to non-treated controls [5]: substantially inhibited sprout growth

Structure (SMILES): CC(C)OC(=O)Nc1cccc(Cl)c1 [CIPC, chlorpropham]
- duration of sprout inhibition / extended storage life [7]: up to 1 year

Structure (SMILES): CCCCCCCCCC=O [decanal]
- duration of sprout suppression [3]: 114 days

Structure (SMILES): CCCCCCCCC=O [nonanal]
- % Inhibition of sprouting ([2]; 0.25 mmol/kg tubers): 13.2%
- % Inhibition of sprouting ([2]; 0.5 mmol/kg tubers): 32.1%
- % Inhibition of sprouting ([2]; 0.75 mmol/kg tubers): 17.0%

Structure (SMILES): CCCC/C=C/CO [trans-2-hepten-1-ol]
- % Inhibition of sprouting ([1]; 0.25 mmol/kg tubers): 91.7%
- % Inhibition of sprouting ([1]; 0.50 mmol/kg tubers): 98.7%
- % Inhibition of sprouting ([1]; 0.75 mmol/kg tubers): 99.4%

Structure (SMILES): CCC/C=C/CO [trans-2-hexen-1-ol]
- damage to the tuber periderm ([3]; after 83 days): excessive damage to the periderm
- sprout control ([3]; up to 83 days): sprouts were effectively controlled up to this point
- % Inhibition of sprouting ([1]; 0.25 mmol/kg tubers): 96%
- % Inhibition of sprouting ([1]; 0.50 mmol/kg tubers): 100.0%
- % Inhibition of sprouting ([1]; 0.75 mmol/kg tubers): 100.0%

Structure (SMILES): CCCCCC/C=C/CO [trans-2-nonen-1-ol]
- persistence of metabolite residue [4]: most persistent metabolite
- % Inhibition of sprouting ([2]; 0.25 mmol/kg tubers): 8.9%
- % Inhibition of sprouting ([2]; 0.5 mmol/kg tubers): 62.8%
- % Inhibition of sprouting ([2]; 0.75 mmol/kg tubers): 31.6%

Structure (SMILES): CCCCCC/C=C/C=O [trans-2-nonenal, reference compound]
- metabolites formed in tubers [4]: trans-2-nonen-1-ol, nonanal and 1-nonanol
- % Inhibition of sprouting ([2]; 0.25 mmol/kg tubers): 100%
- % Inhibition of sprouting ([2]; 0.5 mmol/kg tubers): 100%
- % Inhibition of sprouting ([2]; 0.75 mmol/kg tubers): 100%
- inhibition of sprouting relative to untreated control ([2]; over all concentrations (0.25, 0.5 and 0.75 mmol/kg)): 100%
